Source: patent publication EP0013144A1, “Substituted diphenylamine derivatives, compositions and herbicidal uses thereof, and processes for their preparation” (ICI AUSTRALIA LIMITED, priority 1978, dated 1980)

Tests used:
Assay type in all cases: in vivo
[1] = system: Cotton; experiment: Selective herbicidal activity, seed boxes (Example 34); conditions: crop; 1.5 kg/ha; sprayed on one week old seedlings; 29 days after spraying; triplicate
Description: (§1) The seeds of the test species were sprinkled onto . the surface of soil in seed boxes and covered with a thin layer of sand. The boxes were lightly watered with an overhead spray and placed in a glasshouse for one week to permit germination of the seeds and plant growth to a height of 4 to 5 inches. […] For comparison purposes at least one box containing one week old seedlings was sprayed lightly with water only. After spraying the boxes were returned to the glasshouse for a further 29 days after which the effect of the treatment was visually assessed.

[2] = system: Japanese millet; experiment: as above; conditions: weed; 0.15 kg/ha; sprayed on one week old seedlings; 29 days after spraying; triplicate
Description: as §1

[3] = system: Soyabean; experiment: as above; conditions: crop; 1.5 kg/ha; sprayed on one week old seedlings; 29 days after spraying; triplicate
Description: as §1

[4] = system: Annual Rye Grass; experiment: as above; conditions: weed; 0.15 kg/ha; sprayed on one week old seedlings; 29 days after spraying; triplicate
Description: as §1

[5] = system: Setaria aviceps; experiment: as above; conditions: weed; 0.15 kg/ha; sprayed on one week old seedlings; 29 days after spraying; triplicate
Description: as §1

[6] = system: Sorghum halepense; experiment: as above; conditions: weed; 0.15 kg/ha; sprayed on one week old seedlings; 29 days after spraying; triplicate
Description: as §1

[7] = system: Wild Oats; experiment: as above; conditions: weed; 0.15 kg/ha; sprayed on one week old seedlings; 29 days after spraying; triplicate
Description: as §1

[8] = system: Setaria viridis; experiment: Selective herbicidal activity, young pot plants (Example 35); conditions: weed; post-emergence; 0.08 kg/ha; after 20 days; mean of triplicate
Method: (§2) The compounds were formulated for test by mixing an appropriate amount with 5 ml of an emulsion prepared by diluting 160 ml of a solution containing 21.8 g per litre of "Span" 80 and 78.2 g per litre of "Tween" 20 in methylcyclohexanone to 500 ml with water. "Span" 80 is a Trade Mark for a surface-active agent comprising sorbitan monolaurate. "Tween" 20 is a Trade Mark for a surface-active agent comprising a condensate of sorbitan monolaurate with 20 molar proportions of ethylene oxide. Each 5 ml emulsion containing a test compound was then diluted to 40 ml with water and sprayed on to young pot plants (post-emergence test) of the species named in Table 7 below. Damage to test plants was assessed after 20 days on a scale of 0 to 9 whereo 0 is 0 to 10% and 9 is 90 to 100% kill. The tests were carried out in triplicate and the mean results are recorded in Table 7 below.

[9] = system: Cotton (Deltapine); experiment: as above; conditions: crop; post-emergence; 0.08 kg/ha; after 20 days; mean of triplicate
Method: as §2

[10] = system: Echinochloa crus-galli; experiment: as above; conditions: weed; post-emergence; 0.08 kg/ha; after 20 days; mean of triplicate
Method: as §2

[11] = system: Soyabean (Amsoy); experiment: as above; conditions: crop; post-emergence; 0.08 kg/ha; after 20 days; mean of triplicate
Method: as §2

[12] = system: Digitaria sanguinalis; experiment: as above; conditions: weed; post-emergence; 0.08 kg/ha; after 20 days; mean of triplicate
Method: as §2

[13] = system: Sorghum halepense; experiment: as above; conditions: weed; post-emergence; 0.08 kg/ha; after 20 days; mean of triplicate
Method: as §2

[14] = system: Ipomea; experiment: Pre-emergence herbicidal activity (Example 31); conditions: after three weeks
How it was run: (§3)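 Ratings run from 0 (0–25% damage) to 3 (75–99% kill), with 3+ meaning complete kill, assessed visually three weeks after spraying. Treatment was applied to soil right after sowing, before germination was triggered by overhead watering in the glasshouse.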

[15] = system: Sunflower; experiment: Pre-emergence herbicidal activity (Example 31); conditions: after three weeks
How it was run: as §3

[16] = system: Mustard; experiment: Pre-emergence herbicidal activity (Example 31); conditions: after three weeks
How it was run: as §3

[17] = system: Japanese millet; experiment: Pre-emergence herbicidal activity (Example 31); conditions: after three weeks
How it was run: as §3

[18] = system: Wild Oats; experiment: Pre-emergence herbicidal activity (Example 31); conditions: after three weeks
How it was run: as §3

[19] = system: Wheat; experiment: Post-emergence herbicidal activity (Example 32); parameters: key: 0-3 scale: 0 = 0-25% damage, 3 = 75-99% kill, 3+ = 100% kill; conditions: 3 weeks after spraying
How it was run: (§4)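 Visual damage rating, 0 to 3 (0 = 0–25% damage, 3 = 75–99% kill, 3+ = 100% kill), taken 3 weeks post-spray versus untreated boxes. Plants were sown 2 cm deep in seed boxes, glasshouse-grown and sub-irrigated. They were treated at 10–12.5 cm height with water-diluted formulations.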

[20] = system: Ryegrass; experiment: Pre-emergence herbicidal activity (Example 31); parameters: key: 0-3 scale: 0 = 0-25% damage, 3 = 75-99% kill, 3+ = 100% kill; conditions: after three weeks
How it was run: as §3

[21] = system: Wheat; experiment: Pre-emergence herbicidal activity (Example 31); parameters: key: 0-3 scale: 0 = 0-25% damage, 3 = 75-99% kill, 3+ = 100% kill; conditions: after three weeks
How it was run: as §3

[22] = system: Ipomea; experiment: Post-emergence herbicidal activity (Example 32); conditions: 3 weeks after spraying
How it was run: as §4

[23] = system: Ryegrass; experiment: Post-emergence herbicidal activity (Example 32); conditions: 3 weeks after spraying
How it was run: as §4

[24] = system: Japanese millet; experiment: Post-emergence herbicidal activity (Example 32); conditions: 3 weeks after spraying
How it was run: as §4

[25] = system: Wild Oats; experiment: Post-emergence herbicidal activity (Example 32); conditions: 3 weeks after spraying
How it was run: as §4

[26] = system: Sunflower; experiment: Post-emergence herbicidal activity (Example 32); conditions: 3 weeks after spraying
How it was run: as §4

CC(Oc1ccc(Nc2ccc(C(F)(F)F)cc2[N+](=O)[O-])cc1)C(=O)[O-].[Na+] (centres unmarked) [Compound 65, 2-[4-(2-Nitro-4-trifluoromethylanilino)phenoxy]-propionic acid sodium salt]
percentage damage, Ct [1]: 0 percentage
percentage damage, Jm [2]: 100 percentage
percentage damage, Sb [3]: 0 percentage
percentage damage, Rg [4]: 35 percentage
percentage damage, St [5]: 50 percentage
percentage damage, Sh [6]: 80 percentage
percentage damage, Ot [7]: 58 percentage
damage to test plants, St [8]: 2
damage to test plants, Ct [9]: 0 (0 is 0 to 10%)
damage to test plants, Ec [10]: 9 (9 is 90 to 100% kill)
damage to test plants, Sy [11]: 0 (0 is 0 to 10%)
damage to test plants, Dg [12]: 3
damage to test plants, Sh [13]: 8

COC(=O)C(C)Oc1ccc(Nc2ccc(C(F)(F)F)cc2[N+](=O)[O-])cc1 (centres unmarked) [Compound 21, Methyl 2-[4-(2-nitro-4-trifluoromethylanilino)phenoxy]-propionate]
damage to plants, Ip ([14]; 0.5 kg/ha): 0 (0 represents from 0 to 25% damage)
damage to plants, Ip ([14]; 1 kg/ha): 0 (0 represents from 0 to 25% damage)
damage to plants, Ip ([14]; 5 kg/ha): 0 (0 represents from 0 to 25% damage)
damage to plants, Sf ([15]; 0.5 kg/ha): 0 (0 represents from 0 to 25% damage)
damage to plants, Sf ([15]; 1 kg/ha): 0 (0 represents from 0 to 25% damage)
damage to plants, Sf ([15]; 5 kg/ha): 0 (0 represents from 0 to 25% damage)
damage to plants, Ms ([16]; 0.5 kg/ha): 0 (0 represents from 0 to 25% damage)
damage to plants, Ms ([16]; 1 kg/ha): 0 (0 represents from 0 to 25% damage)
damage to plants, Ms ([16]; 5 kg/ha): 0 (0 represents from 0 to 25% damage)
damage to plants, Jm ([17]; 0.5 kg/ha): 3+ (3+ represents 100% kill)
damage to plants, Jm ([17]; 1 kg/ha): 3+ (3+ represents 100% kill)
damage to plants, Jm ([17]; 5 kg/ha): 3+ (3+ represents 100% kill)
damage to plants, Ot ([18]; 0.5 kg/ha): 3 (3 represents 75 to 99% kill)
damage to plants, Ot ([18]; 1 kg/ha): 3+ (3+ represents 100% kill)
damage to plants, Ot ([18]; 5 kg/ha): 3+ (3+ represents 100% kill)
damage to plants, Wh ([19]; 1 kg/ha): 3 (3 represents 75 to 99% kill)
damage to plants, Wh ([19]; 5 kg/ha): 3+ (3+ represents 100% kill)
damage to plants, Rg ([20]; 0.5 kg/ha): 3+ (3+ represents 100% kill)
damage to plants, Rg ([20]; 1 kg/ha): 3+ (3+ represents 100% kill)
damage to plants, Rg ([20]; 5 kg/ha): 3+ (3+ represents 100% kill)
damage to plants, Wh ([21]; 1 kg/ha): 2
damage to plants, Ip ([22]; 1 kg/ha): 0 (0 represents 0 to 25% damage)
damage to plants, Ip ([22]; 5 kg/ha): 2
damage to plants, Rg ([23]; 1 kg/ha): 3+ (3+ represents 100% kill)
damage to plants, Rg ([23]; 5 kg/ha): 3+ (3+ represents 100% kill)
damage to plants, Jm ([24]; 1 kg/ha): 3+ (3+ represents 100% kill)
damage to plants, Jm ([24]; 5 kg/ha): 3+ (3+ represents 100% kill)
damage to plants, Ot ([25]; 1 kg/ha): 3 (3 represents 75 to 99% kill)
damage to plants, Ot ([25]; 5 kg/ha): 3+ (3+ represents 100% kill)
damage to test plants, St [8]: 8
damage to test plants, Ct [9]: 0 (0 is 0 to 10%)
damage to test plants, Ec [10]: 5
damage to test plants, Sy [11]: 0 (0 is 0 to 10%)
damage to test plants, Dg [12]: 5
damage to test plants, Sh [13]: 9 (9 is 90 to 100% kill)

CC(Oc1ccc(Nc2ccc(C(F)(F)F)cc2[N+](=O)[O-])cc1)C(=O)O (centres unmarked) [Compound 46, 2[4-(2-Nitro-4-trifluoromethylanilino)phenoxy]-propionic acid]
damage to plants, Ip ([14]; 1 kg/ha): 0 (0 represents from 0 to 25% damage)
damage to plants, Ip ([14]; 5 kg/ha): 0 (0 represents from 0 to 25% damage)
damage to plants, Sf ([15]; 1 kg/ha): 0 (0 represents from 0 to 25% damage)
damage to plants, Sf ([15]; 5 kg/ha): 0 (0 represents from 0 to 25% damage)
damage to plants, Ms ([16]; 1 kg/ha): 0 (0 represents from 0 to 25% damage)
damage to plants, Ms ([16]; 5 kg/ha): 0 (0 represents from 0 to 25% damage)
damage to plants, Jm ([17]; 1 kg/ha): 3 (3 represents 75 to 99% kill)
damage to plants, Jm ([17]; 5 kg/ha): 3+ (3+ represents 100% kill)
percentage damage, Ct [1]: 50 percentage
percentage damage, Jm [2]: 85 percentage
percentage damage, Sb [3]: 38 percentage
percentage damage, Rg [4]: 55 percentage
percentage damage, St [5]: 55 percentage
percentage damage, Sh [6]: 88 percentage
percentage damage, Ot [7]: 50 percentage
damage to plants, Wh ([19]; 1 kg/ha): 2
damage to plants, Wh ([19]; 5 kg/ha): 3+ (3+ represents 100% kill)
damage to plants, Rg ([20]; 1 kg/ha): 2
damage to plants, Rg ([20]; 5 kg/ha): 3+ (3+ represents 100% kill)
damage to plants, Wh ([21]; 1 kg/ha): 0 (0 represents from 0 to 25% damage)
damage to plants, Wh ([21]; 5 kg/ha): 2
damage to plants, Ip ([22]; 1 kg/ha): 0 (0 represents 0 to 25% damage)
damage to plants, Ip ([22]; 5 kg/ha): 0 (0 represents 0 to 25% damage)
damage to plants, Rg ([23]; 1 kg/ha): 3+ (3+ represents 100% kill)
damage to plants, Rg ([23]; 5 kg/ha): 3+ (3+ represents 100% kill)
damage to plants, Sf ([26]; 1 kg/ha): 0 (0 represents 0 to 25% damage)
damage to plants, Sf ([26]; 5 kg/ha): 2
damage to plants, Jm ([24]; 1 kg/ha): 3+ (3+ represents 100% kill)
damage to plants, Jm ([24]; 5 kg/ha): 3+ (3+ represents 100% kill)
